Data as given in the supplement of paper PMC13380429.
± gives the standard deviation of the averaged measurements.

Legend:
Settings in all cases: 72 h
Caco-2 [1] = assay: cell viability relative to DMSO; higher = less toxic
Calu-3 [2] = assay: as above
HepG2 [3] = assay: as above
U2OS [4] = assay: as above
Vero E6 [5] = assay: as above
Caco-2 [6] = assay: relative viability EC50 (midpoint between 100% and the lowest measured viability); higher = less toxic
Calu-3 [7] = assay: as above
HepG2 [8] = assay: as above
U2OS [9] = assay: as above
Vero E6 [10] = assay: as above
Caco-2 [11] = assay: drug sensitivity score (DSS) for viability; higher = more toxic; extreme values may be limits of the assay
Calu-3 [12] = assay: as above
HepG2 [13] = assay: as above
U2OS [14] = assay: as above
Vero E6 [15] = assay: as above

Compound | cell viability (Caco-2 [1]; 1 nM) | cell viability (Caco-2 [1]; 10 nM) | cell viability (Caco-2 [1]; 100 nM) | cell viability (Caco-2 [1]; 1000 nM) | cell viability (Caco-2 [1]; 10000 nM) | cell viability (Calu-3 [2]; 1 nM) | cell viability (Calu-3 [2]; 10 nM) | cell viability (Calu-3 [2]; 100 nM) | cell viability (Calu-3 [2]; 1000 nM) | cell viability (Calu-3 [2]; 10000 nM) | cell viability (HepG2 [3]; 1 nM) | cell viability (HepG2 [3]; 10 nM) | cell viability (HepG2 [3]; 100 nM) | cell viability (HepG2 [3]; 1000 nM) | cell viability (HepG2 [3]; 10000 nM) | cell viability (U2OS [4]; 1 nM) | cell viability (U2OS [4]; 10 nM) | cell viability (U2OS [4]; 100 nM) | cell viability (U2OS [4]; 1000 nM) | cell viability (U2OS [4]; 10000 nM) | cell viability (Vero E6 [5]; 1 nM) | cell viability (Vero E6 [5]; 10 nM) | cell viability (Vero E6 [5]; 100 nM) | cell viability (Vero E6 [5]; 1000 nM) | cell viability (Vero E6 [5]; 10000 nM) | relative viability EC50 (Caco-2 [6]) | relative viability EC50 (Calu-3 [7]) | relative viability EC50 (HepG2 [8]) | relative viability EC50 (U2OS [9]) | relative viability EC50 (Vero E6 [10]) | drug sensitivity score (Caco-2 [11]) | drug sensitivity score (Calu-3 [12]) | drug sensitivity score (HepG2 [13]) | drug sensitivity score (U2OS [14]) | drug sensitivity score (Vero E6 [15])
O=S(=O)(c1ccccc1)c1cnc2c(N3CCNCC3)cccc2c1 | 95.9% | 101% | 102% | 94.8% | 101% | 90.2% | 96.5% | 104% | 96.7% | 98.4% | 93.8% | 105% | 97.1% | 108% | 87.2% | 102% | 96.8% | 102% | 99% | 97% | 93.3% | 97.4% | 95% | 97.3% | 106% | > 10 µM | > 10 µM | > 10 µM | > 10 µM | > 10 µM | 0 | 0 | 0 | 0 | 0
CN(CCOc1ccc(NS(C)(=O)=O)cc1)CCc1ccc(NS(C)(=O)=O)cc1 [dofetilide] | 91.1% | 99.9% | 99.1% | 97.1% | 102% | 111% | 90.4% | 101% | 98.6% | 104% | 100% | 102% | 89.5% | 117% | 118% | 100% | 102% | 102% | 96.6% | 97% | 92.6% | 104% | 90.2% | 98.1% | 110% | > 10 µM | > 10 µM | > 10 µM | > 10 µM | > 10 µM | 0 | 0 | 0 | 0 | 0
CC(C)(C)/[N+]([O-])=C/c1ccc(S(=O)(=O)O)cc1S(=O)(=O)O [NXY-059] | 98.5% | 101% | 96.5% | 105% | 97.5% | 91.3% | 97% | 98.4% | 95% | 95.8% | 101% | 94.4% | 102% | 100% | 96.8% | 94.6% | 100% | 93.4% | 98.7% | 106% | 99.1% | 105% | 106% | 105% | 101% | > 10 µM | > 10 µM | > 10 µM | > 10 µM | > 10 µM | 0 | 0 | 0 | 0 | 0
CCC(=O)N1CCOc2c(cc(-c3ccc(OC)c(OC)c3)cc2OC[C@H]2CCCN(C)C2)C1 [I-CBP-112] | 101% | 99.9% | 103% | 98.6% | 94.7% | 96.6% | 95% | 99.5% | 95.9% | 87.4% | 96.6% | 107% | 87.5% | 104% | 86% | 98.5% | 92% | 95.5% | 95.3% | 97.8% | 105% | 102% | 97.2% | 105% | 78.4% | > 10 µM | > 10 µM | > 10 µM | > 10 µM | > 10 µM | 0 | 0.3 | 0.1 | 0 | 0.5
CC1=C(C(=O)O)N2C(=O)[C@@H](NC(=O)[C@H](N)C3=CCC=CC3)[C@H]2SC1 [cephradine] | 96.75 ± 0.92% | 100 ± 9.7% | 94.8 ± 0.85% | 98 ± 3.8% | 103 ± 14% | 92.7 ± 0.85% | 98.1 ± 5.7% | 98.3 ± 2% | 106 ± 9.1% | 89.2 ± 6% | 99.9 ± 3.4% | 94.2 ± 3.5% | 98 ± 7.6% | 102 ± 10% | 108 ± 3.1% | 96.4 ± 0.99% | 99.7 ± 2.4% | 100 ± 3.5% | 103.8 ± 0.78% | 101.7 ± 0.78% | 95.2 ± 3% | 97 ± 3.8% | 94.5 ± 3% | 98.4 ± 4.1% | 99.2 ± 1.1% | > 10 µM | > 10 µM | > 10 µM | > 10 µM | > 10 µM | 0 | 0.15 ± 0.21 | 0 | 0 | 0
CC(C)(O)CNc1nc(Nc2ccnc(C(F)(F)F)c2)nc(-c2cccc(C(F)(F)F)n2)n1 [enasidenib] | 94.5% | 115% | 107% | 102% | 79.3% | 96% | 106% | 103% | 87.8% | 92.7% | 106% | 96.9% | 110% | 106% | 91.7% | 101% | 104% | 99.9% | 104% | 92% | 98.2% | 94.2% | 97.9% | 99.6% | 101% | > 10 µM | > 10 µM | > 10 µM | > 10 µM | > 10 µM | 0.5 | 0.5 | 0 | 0 | 0
Cc1cc(SCc2sc(-c3ccc(C(F)(F)F)c(F)c3)nc2C)ccc1OCC(=O)O [GW-0742] | 99.9% | 101% | 89.1% | 106% | 87.2% | 95.1% | 94.8% | 92.5% | 90.5% | 98.3% | 102% | 74.6% | 94% | 90.1% | 99.9% | 102% | 103% | 97.9% | 104% | 99.7% | 96.3% | 101% | 96.7% | 98.3% | 99% | > 10 µM | > 10 µM | > 10 µM | > 10 µM | > 10 µM | 0 | 0 | 0 | 0 | 0
NCCc1ccc(O)c(O)c1 [dopamine] | 106% | 97.7% | 92.5% | 91.1% | 89.9% | 100% | 100% | 100% | 99.8% | 109% | 106% | 107% | 95.1% | 115% | 99.6% | 101% | 96.6% | 101% | 100% | 100% | 103% | 106% | 102% | 97% | 99.4% | > 10 µM | > 10 µM | > 10 µM | > 10 µM | > 10 µM | 0 | 0 | 0 | 0 | 0
CCNC1(C(N)=O)CCN(c2ncnc3c2nc(-c2ccccc2Cl)n3-c2ccc(Cl)cc2)CC1 [CP-945,598] | 96.2% | 98.9% | 88.3% | 80.7% | 89.3% | 109% | 102% | 97.5% | 108% | 104% | 103% | 95.6% | 100% | 95.3% | 86.6% | 104% | 104% | 101% | 98.1% | 95.7% | 101% | 103% | 98.6% | 101% | 104% | > 10 µM | > 10 µM | > 10 µM | > 10 µM | > 10 µM | 3.1 | 0 | 0.4 | 0 | 0
O=C(O)/C=C\c1c[nH]cn1 [cis-Urocanic acid] | 93.8 ± 14% | 96.7 ± 3.2% | 92.3 ± 7.2% | 91.5 ± 8.9% | 98.1 ± 5.9% | 107 ± 4.3% | 108 ± 11% | 100 ± 4.8% | 98 ± 8.6% | 96.6 ± 3% | 97.1% | 95.9% | 88.1% | 102% | 95.2% | 99.2 ± 3% | 97.5 ± 2.8% | 97.7 ± 1.1% | 97.4 ± 4% | 100 ± 1.8% | 99.5 ± 3.1% | 99.8% | 100 ± 4.2% | 100.8 ± 0.64% | 99 ± 1.8% | > 10 µM | > 10 µM | > 10 µM | > 10 µM | > 10 µM | 1.25 ± 1.8 | 0 | 0 | 0 | 0
CC(C)(C(=O)O)c1ccc(C(=O)CCCN2CCC(OC(c3ccccc3)c3ccccc3)CC2)cc1 [carebastine] | 101% | 101% | 107% | 92.2% | 96.6% | 89.7% | 88.6% | 110% | 100% | 102% | 107% | 97.7% | 94.3% | 108% | 92.9% | 95.7% | 99.2% | 99.4% | 93.2% | 99.3% | 111% | 106% | 95.3% | 104% | 106% | > 10 µM | > 10 µM | > 10 µM | > 10 µM | > 10 µM | 0 | 0 | 0 | 0 | 0
O=C(NCCO)c1cc(C(=O)NCCO)cc(C(=O)NCCO)c1 [LM-22A4] | 96.8% | 96.1% | 97.3% | 99.2% | 100% | 104% | 105% | 97% | 102% | 91.9% | 104% | 103% | 101% | 97.5% | 102% | 94.6% | 97.7% | 96.1% | 99.5% | 93.5% | 105% | 98.3% | 106% | 98.4% | 105% | > 10 µM | > 10 µM | > 10 µM | > 10 µM | > 10 µM | 0 | 0 | 0 | 0 | 0
CC1(C)O[C@@H]2C[C@H]3[C@@H]4C[C@H](F)C5=CC(=O)C=C[C@]5(C)[C@H]4[C@@H](O)C[C@]3(C)[C@]2(C(=O)CO)O1 [flunisolide] | 105% | 103% | 91.5% | 87.7% | 98.5% | 98.5% | 96.1% | 101% | 94.5% | 88.5% | 105% | 104% | 97.3% | 97.3% | 99.2% | 102% | 93.9% | 91.4% | 93.8% | 94.7% | 96.6% | 97.6% | 95.3% | 94.2% | 102% | > 10 µM | > 10 µM | > 10 µM | > 10 µM | > 10 µM | 1 | 0.2 | 0 | 0 | 0
Cn1c(=O)c2c(ncn2CCO)n(C)c1=O [etofylline] | 103% | 98% | 90.5% | 102% | 97.6% | 97.8% | 99.6% | 97% | 98.2% | 102% | 101% | 110% | 88.8% | 96.6% | 102% | 102% | 97.4% | 97% | 98.8% | 98.4% | 104% | 98% | 103% | 103% | 103% | > 10 µM | > 10 µM | > 10 µM | > 10 µM | > 10 µM | 0 | 0 | 0 | 0 | 0
